{
  "source": "paper PMC7265447",
  "about": "“Ultra-rapid glutathionylation of chymotrypsinogen in its molten globule-like conformation: A comparison to archaeal proteins” (Scientific Reports, 2020)",
  "key": {"[1]": {"target": "T1, reduced Protein Disulphide Oxidoreductase (rSsPDO) (Saccharolobus solfataricus, UniProt Q980T5)", "T1 construct": "gene SSO0192; recombinant in E. coli, HisTrap and Resource Q purified, about 27 kDa band", "T1 sequence (Q980T5 1-233)": "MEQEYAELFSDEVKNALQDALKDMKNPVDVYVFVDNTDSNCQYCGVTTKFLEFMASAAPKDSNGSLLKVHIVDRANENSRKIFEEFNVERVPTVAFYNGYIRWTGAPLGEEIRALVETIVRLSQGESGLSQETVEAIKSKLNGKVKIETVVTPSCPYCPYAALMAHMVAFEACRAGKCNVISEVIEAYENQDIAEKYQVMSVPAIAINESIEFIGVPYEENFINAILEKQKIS", "assay": "Cys-DNB adduct absorbance at […] nm", "assay_type": "binding", "conditions": "pH 7.4, 0.4 M urea, 25 °C, covalent, 3 -SH/mol"}, "[2]": {"target": "T2, reduced α-chymotrypsinogen A (rChTg) (Bos taurus, UniProt P00766)", "assay": "Cys-DNB adduct absorbance at […] nm", "assay_type": "binding", "conditions": "pH 5.0, 0.28 M urea, 25 °C; reduced protein; covalent; average of 10 -SH"}, "[3]": {"target": "T3, reduced Bacterioferritin Comigratory Protein 1 (rBcp1) (Saccharolobus solfataricus, UniProt Q97WP9)", "T3 construct": "gene bcp-1; recombinant in E. coli BL21(DE3)-RIL (pET30Bcp1), HisTrap purified, 18 kDa band", "T3 sequence (Q97WP9 entry or part of it)": "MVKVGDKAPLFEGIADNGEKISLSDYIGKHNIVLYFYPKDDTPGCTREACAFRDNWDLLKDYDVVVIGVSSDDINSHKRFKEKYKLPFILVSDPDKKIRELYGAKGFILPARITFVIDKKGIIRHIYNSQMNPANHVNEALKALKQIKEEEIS", "assay": "Cys-DNB adduct absorbance at […] nm", "assay_type": "binding", "conditions": "pH 7.4, 0.12 M urea, 25 °C, covalent, 1 -SH/mol"}, "Cys50": {"target": "Cys50 (UniProt position 50, STREACAFRDN)", "assay": "chemical modification", "conditions": "25 °C; 20 mM Britton-Robinson buffers; reduced, molten globule-like conformation in 0.2 M urea; 2.6 µM protein"}, "Cys45": {"target": "Cys45 (UniProt position 45, DDTPGCTREAS)", "assay": "chemical modification", "conditions": "25 °C; 20 mM Britton-Robinson buffers; reduced, molten globule-like conformation in 0.2 M urea; 2.6 µM protein"}, "[4]": {"target": "T2, reduced α-chymotrypsinogen A (rChTg)", "assay": "thiol loss, DTNB titration", "assay_type": "binding", "conditions": "pH 5.0, 0.2 M urea, 25 °C; reduced protein; covalent; 8 -SH/mol", "from_the_text": "thiol loss, DTNB titration on reduced α-chymotrypsinogen A (rChTg)"}, "[5]": {"target": "T3, reduced Bacterioferritin Comigratory Protein 1 (rBcp1)", "assay": "loss of reactive Cys, DTNB titration", "assay_type": "binding", "conditions": "pH 7.4, 0.2 M urea, 25 °C, covalent, 1 -SH/mol", "from_the_text": "loss of reactive Cys, DTNB titration on reduced Bacterioferritin Comigratory Protein 1 (rBcp1)"}, "[6]": {"target": "T1, reduced Protein Disulphide Oxidoreductase (rSsPDO)", "assay": "loss of reactive Cys, DTNB titration", "assay_type": "binding", "conditions": "pH 7.4, 0.4 M urea, 25 °C, covalent, 2 -SH/mol", "from_the_text": "loss of reactive Cys, DTNB titration on reduced Protein Disulphide Oxidoreductase (rSsPDO)"}, "[7]": {"target": "T3, reduced Bacterioferritin Comigratory Protein 1 (rBcp1)", "assay": "Cys-NBD adduct absorbance at […] nm", "assay_type": "binding", "conditions": "pH 7.4, 0.12 M urea, 25 °C, covalent, 1 -SH/mol"}, "[8]": {"target": "T1, reduced Protein Disulphide Oxidoreductase (rSsPDO)", "assay": "Cys-NBD adduct absorbance at […] nm", "assay_type": "binding", "conditions": "pH 7.4, 0.4 M urea, 25 °C, covalent, 2 -SH/mol"}, "[9]": {"target": "T2, reduced α-chymotrypsinogen A (rChTg)", "assay": "Cys-NBD adduct absorbance at […] nm", "assay_type": "binding", "conditions": "pH 5.0, 0.28 M urea, 25 °C; reduced protein; covalent; average of 10 -SH"}},
  "data": [
    {"molecule": "O=[N+]([O-])c1ccc(Cl)c([N+](=O)[O-])c1", "note": "[CDNB, 1-chloro-2,4-dinitrobenzene]", "values": [
      {"measurement": "Reduced SsPDO / k (M^-1 s^-1) (-SH/mole SsPDO)", "setting": "[1]", "value": "1.6 ± 0.1", "unit": "M⁻¹ s⁻¹"},
      {"measurement": "Reduced ChTg / k (M^-1 s^-1) (-SH/mol ChTg)", "setting": "[2]", "value": "0.19 ± 0.01", "unit": "M⁻¹ s⁻¹"},
      {"measurement": "Reduced Bcp1 / k (M^-1 s^-1) (-SH/mole Bcp1)", "setting": "[3]", "value": "0.55 ± 0.03", "unit": "M⁻¹ s⁻¹"}
    ]},
    {"molecule": "Bacterioferritin comigratory protein 1 (Bcp1) C45S mutant, reduced (rC45S) (Sulfolobus solfataricus (Saccharolobus solfataricus); C45S)", "values": [
      {"measurement": "pKa", "setting": "Cys50", "value": "7.6 ± 0.1"}
    ]},
    {"molecule": "Bacterioferritin comigratory protein 1 (Bcp1) C50S mutant, reduced (rC50S) (Sulfolobus solfataricus (Saccharolobus solfataricus); C50S)", "values": [
      {"measurement": "pKa", "setting": "Cys45", "value": "7.9 ± 0.1"}
    ]},
    {"molecule": "N[C@@H](CSSC[C@H](N)C(=O)O)C(=O)O", "note": "[cystine]", "values": [
      {"measurement": "Reduced ChTg / k (M^-1 s^-1) (-SH/mol ChTg)", "setting": "[4]", "value": "0.56 ± 0.02", "unit": "M⁻¹ s⁻¹"},
      {"measurement": "Reduced Bcp1 / k (M^-1 s^-1) (-SH/mole Bcp1)", "setting": "[5]", "value": "115 ± 10", "unit": "M⁻¹ s⁻¹"},
      {"measurement": "Reduced SsPDO / k (M^-1 s^-1) (-SH/mole SsPDO)", "setting": "[6]", "value": "10 ± 2", "unit": "M⁻¹ s⁻¹"}
    ]},
    {"molecule": "O=[N+]([O-])c1ccc(Cl)c2nonc12", "note": "[NBD-Cl, 4-chloro-7-nitrobenzofurazan]", "values": [
      {"measurement": "Reduced Bcp1 / k (M^-1 s^-1) (-SH/mole Bcp1)", "setting": "[7]", "value": "27 ± 3", "unit": "M⁻¹ s⁻¹"},
      {"measurement": "Reduced SsPDO / k (M^-1 s^-1) (-SH/mole SsPDO)", "setting": "[8]", "value": "72 ± 3", "unit": "M⁻¹ s⁻¹"},
      {"measurement": "Reduced ChTg / k (M^-1 s^-1) (-SH/mol ChTg)", "setting": "[9]", "value": "12.6 ± 0.5", "unit": "M⁻¹ s⁻¹"}
    ]},
    {"molecule": "N[C@@H](CCSSCC[C@H](N)C(=O)O)C(=O)O", "note": "[homocystine]", "values": [
      {"measurement": "Reduced Bcp1 / k (M^-1 s^-1) (-SH/mole Bcp1)", "setting": "[5]", "value": "15 ± 1", "unit": "M⁻¹ s⁻¹"},
      {"measurement": "Reduced SsPDO / k (M^-1 s^-1) (-SH/mole SsPDO)", "setting": "[6]", "value": "6 ± 1", "unit": "M⁻¹ s⁻¹"}
    ]},
    {"molecule": "NCCSSCCN", "note": "[cystamine]", "values": [
      {"measurement": "Reduced Bcp1 / k (M^-1 s^-1) (-SH/mole Bcp1)", "setting": "[5]", "value": "33 ± 3", "unit": "M⁻¹ s⁻¹"},
      {"measurement": "Reduced SsPDO / k (M^-1 s^-1) (-SH/mole SsPDO)", "setting": "[6]", "value": "20 ± 2", "unit": "M⁻¹ s⁻¹"}
    ]}
  ]
}
